From PubChem BioAssay AID602191 (Broad Institute, 2012)
Calls of active or inactive are those of the source.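 Rule for the calls: active = fitted curve reaches 40% activation at a concentration no higher than the top valid tested dose; inconclusive = flat fit between 30% and 70% activation, or poor fit; inactive = uptake decrease, flat fit within 30% of zero, the rest.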

The molecules below were run against Scavenger receptor class B member 1 (Mus musculus) (UniProt Q61009) (assay: enhancers of DiI-HDL lipid transfer via SR-BI – cell-based, ldlA[mSR-BI] CHO, DiI fluorescence, cherry-pick, dose response (AID 602191;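 note: cell fluorescence from internalized DiI-labeled HDL after washing; 0% = median of DMSO wells and 100% = twice the DMSO signal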)). Details: ldlA[mSR-BI] CHO cells, 3 h, at 35 µM (top of the series).
Sequence of Scavenger receptor class B member 1 (Mus musculus) (Q61009 whole entry, looked up): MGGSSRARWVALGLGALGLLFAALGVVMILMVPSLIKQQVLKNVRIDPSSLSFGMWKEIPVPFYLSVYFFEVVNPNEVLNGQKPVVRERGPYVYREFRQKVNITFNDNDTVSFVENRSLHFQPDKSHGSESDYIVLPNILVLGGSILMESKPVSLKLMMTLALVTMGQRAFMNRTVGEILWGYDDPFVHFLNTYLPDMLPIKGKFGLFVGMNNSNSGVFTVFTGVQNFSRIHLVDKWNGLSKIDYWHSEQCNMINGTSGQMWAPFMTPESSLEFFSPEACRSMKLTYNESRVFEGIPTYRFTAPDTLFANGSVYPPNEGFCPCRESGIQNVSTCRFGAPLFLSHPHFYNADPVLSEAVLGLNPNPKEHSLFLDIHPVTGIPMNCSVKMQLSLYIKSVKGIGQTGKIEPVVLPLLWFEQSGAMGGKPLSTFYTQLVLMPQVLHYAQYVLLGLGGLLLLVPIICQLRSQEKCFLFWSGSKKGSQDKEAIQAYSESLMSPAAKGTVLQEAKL

| Structure (SMILES) | activation (HDL uptake increase) |
| --- | --- |
| COc1ccc(Cn2c(N)c(S(=O)(=O)c3cccs3)c3nc4ccccc4nc32)cc1 | -19.6% (inactive) |
| NNC(=O)Cn1nc(Cc2ccccc2)n(N)c1=O | -4.95% (inactive) |
| COCCn1c(=O)[nH]c2cc(C(=O)N3CCN(c4ccccc4OC)CC3)ccc2c1=O | -12.6% (inactive) |
| O=C1CCCC/C=C\C[C@H](CC(=O)N(CCO)Cc2ccccc2)C(=O)N2CCC[C@@H]2CO1 | -5.56% (inactive) |
| O=C(CCc1nc2ccccc2c(=O)[nH]1)N1CCN(c2ccccc2Cl)CC1 | -8.18% (inactive) |
| C[C@@H](C(=O)OCC(=O)c1ccccc1)N1C(=O)C2CCCCC2C1=O (stereo partly specified) | -7.88% (inactive) |
| Cc1nc(C2CCCCC2)c(-c2ccccc2)c(N2CCOC2=O)c1C | 1.15% (inactive) |
| O=S(=O)(NCCc1cn2ccccc2n1)c1ccc(-c2ccccc2)cc1 | -1.66% (inactive) |
| CC(C)C[C@H]1CNC(=S)N1CC1CCCN1C[C@H](Cc1ccccc1)N1C[C@H](Cc2ccc(O)cc2)N(CC2CCCCC2)C1=S (stereo partly specified) | -0.934% (inactive) |
| O=C(O)CCc1nnc(SCC(=O)Nc2cccc(C(F)(F)F)c2)[nH]c1=O | -1.57% (inactive) |
| CCN1C[C@@H]2[C@@H]3C(=O)N(Cc4ccccc4)C(=O)[C@@H]3[C@](C)(C1=O)N2C(=O)c1ccc(Br)cc1 | 1.77% (inactive) |
| COc1cccc(OC)c1C(=O)N1CCN(Cc2ccccc2C)CC1 | -7.18% (inactive) |
| Cc1ccc(C2(CC(=O)N3CCCC3)CCOC(C(C)C)C2)cc1 (stereo unspecified) | -13.4% (inactive) |
| CC(=O)Oc1ccc2oc(=O)c3c(c2c1)CCCN3C(=O)CN1CCN(c2ncccn2)CC1 | -12.6% (inactive) |
| CCOC(=O)C1CCCN(C(=O)CS(=O)(=O)Cc2ccccc2)C1 (stereo unspecified) | 7.75% (inactive) |
| Cc1c(C(=O)N2CCC(C(N)=O)CC2)sc(N)c1C#N | -8.06% (inactive) |
| CC(C)CN(C(=O)CN1C(=O)C2CCCCC2C1=O)c1c(N)n(Cc2ccccc2)c(=O)[nH]c1=O (stereo unspecified) | -7.25% (inactive) |
| O=S(=O)(c1ccccc1F)N1CCN(Cc2cc3c(cc2Br)OCCO3)CC1 | -16.4% (inactive) |
| Cc1cccc(NC(=O)CN2CCN(C(=O)C3CCCO3)CC2)c1C (stereo unspecified) | -0.486% (inactive) |
| C[C@@H]1CN([C@H](C)CO)C(=O)c2cc(NC(=O)Nc3ccc(C(F)(F)F)cc3)ccc2O[C@H]1CN(C)Cc1ccc(Cl)c(Cl)c1 | -0.198% (inactive) |

Next, values leading:

| activation (HDL uptake increase) | Structure (SMILES) |
| --- | --- |
| -1.19% (inactive) | Cc1ccc(C2(CCNCc3ccc(N(C)C)cc3)CCOC(C(C)C)C2)cc1 (stereo unspecified) |
| -5.85% (inactive) | O=C(Cn1c(=O)cnc2ccccc21)NNC(=O)c1ccc(Cl)cc1 |
| -7.32% (inactive) | COc1ccc(C(C(=O)NC2CCCCC2)N(C(=O)CCl)c2ccc(C)cc2)cc1 (stereo unspecified) |
| -7.63% (inactive) | Cc1ccc(S(=O)(=O)N2CCOCC2)cc1C(=O)NCc1ccccc1CN1CCCC1 |
| -7.98% (inactive) | CC(C)NC(=O)c1ccc(CS(=O)(=O)c2ccc(Br)cc2)o1 |
| -12.5% (inactive) | Cc1nn(-c2ccccc2)nc1CNC(=O)C(C)Cc1ccccc1 (stereo unspecified) |
| -8.82% (inactive) | COc1ccccc1CN1C(=O)CCC1(C)C(=O)NCc1cccnc1 (stereo unspecified) |
| -5.58% (inactive) | CN(C(=O)COC(=O)CN1C(=O)c2cccc([N+](=O)[O-])c2C1=O)c1ccccc1 |
| 1.38% (inactive) | COc1cccc(CC(=O)Nc2ccccc2C(=O)N2CCOCC2)c1 |
| -11.2% (inactive) | COc1ccc(NC(=O)N(C)C[C@H]2Oc3c(NC(=O)c4ccncc4)cccc3C(=O)N([C@H](C)CO)C[C@@H]2C)cc1 |
| 5.5% (inactive) | CN(C)CCn1c2c(c(SCC(=O)NCc3ccccc3)nc1=O)CCCC2 |
| -5.72% (inactive) | Cc1ccc(S(=O)(=O)N(CCC(=O)NCC(c2ccccc2)N(C)C)c2ccccc2)cc1 (stereo unspecified) |
| 0.946% (inactive) | CC(C)CN(C(=O)CCNC(=O)c1ccccc1Cl)C1CCS(=O)(=O)C1 (stereo unspecified) |
| -6.25% (inactive) | O=C(CCCCCN1C(=O)c2ccccc2C1=O)Nc1ccc(C(=O)O)cc1 |
| -5.05% (inactive) | O=C(CCC(=O)OCC(=O)c1ccc([N+](=O)[O-])cc1)Nc1ccccc1Cl |
| -2.65% (inactive) | O=C(CCNC(=O)c1ccccc1Cl)NCC(c1ccc(F)cc1)N1CCOCC1 (stereo unspecified) |
| -1.54% (inactive) | C[C@H](NC(=O)c1nc[nH]c1C(=O)NCc1ccccc1)c1ccccc1 |
| -4.2% (inactive) | COCCCNC(=O)CC(NS(=O)(=O)c1ccc(OC)cc1)c1ccc(OC)cc1 (stereo unspecified) |
| -2.75% (inactive) | Cc1ccc2nc(N(CCCN(C)C)C(=O)c3ccc(S(=O)(=O)N4CCOCC4)cc3)sc2c1 |
| -10.8% (inactive) | O=C(CCNC(=O)c1ccccc1Cl)NN1C(=O)NC2(CCCCC2)C1=O |
| -24.2% (inactive) | Cc1ccc(OCC(=O)N(C)CC(=O)NCc2ccco2)c(Br)c1 |
